Results on two sequences are retold here after patent publication US12084521B2, “TLR9 inhibitors to suppress inflammatory response to pathogens” (University Of Maryland, Baltimore, priority 2018, dated 2024).

The test system of one data set is myDDosome. The conditions noted are these: BMDM pretreated with CPDP; MyD88 IP, IRAK4 blot. On the procedure:
Four million BMDMs per well were plated in 6-well plates and treated with CPDP for 30 minutes prior to stimulation with ODN 1668 for 90 minutes. Cells were lysed in 600 p L of buffer containing 20 mM HEPES (pH 7.4), 150 mM NaCl, 10 mM NaF, 2 mM Na3VO4, 1 mM EDTA, 1 mM EGTA, 0.5% Triton X-100, 0.1 mM DTT, and protease inhibitor cocktail (Roche™). Cell extracts were incubated overnight with 1 μg of anti-mouse MyD88 antibody (AF3109) (R&D Systems™, followed by a 4-hour incubation with 20 μL protein G Sepharose beads (ThermoFisherm Scientific). The beads were then washed 3 times with 500 μL of lysis buffer and boiled in 60 μL of Laemmli sample buffer (Bio-Rad™). Cell extracts were electrophoresed on 10% acrylamide gel by SDS-PAGE and transferred to PVDF membrane (Bio-Rad™). Rabbit anti-MyD88 IgG was purchased from Cell Signaling™. Mouse anti-IRAK4 IgG was obtained from Abcam™. Alkaline phosphatase-conjugated secondary antibodies against mouse and rabbit IgG were purchased from Cell Signaling™. The stabilized substrate for alkaline phosphatase was from Promega™.
TLR stimulation causes formation of myDDosome, a signaling complex composed through interactions of IRAK and MyD88 death domains. To test if peptides inhibit myDDosome formation, MyD88 was immunoprecipitated from lysates of ODN-stimulated BMDM and the precipitates analyzed for IRAK4 presence. BMDM were lysed and lysates immunoprecipitated with anti-MyD88 Ab and immune complexes assessed with anti-IRAK4 Ab 3 hours after cell treatment with ODN 1668.

The next data set deals with TLR7 signaling. Briefly: TNFα mRNA in BMDM stimulated with R848. The format is cell-based, mouse. Conditions: peptide 40 μM; R848 2.85 μM; 1 h. On the procedure: (§1) The cDNA obtained was amplified with gene-specific primers for mouse HPRT, TNFα, IL-10, IL-12-p40, or IL-6 and Fast SYBR Green™ master mix (Applied Biosystemsm) as previously described.
(§2) CPDPs 9R34 and 9R11 were examined for inhibition of TLR1/2, TLR4, and TLR7 signaling. BMDMs were stimulated with Pam3C, E. coli LPS, or R848 and TNFαmRNA was measured 1 hour after stimulation. Mouse BMDM were treated with 40 μM of the indicated peptides for 30 minutes prior to stimulation with ODN 1668 (1 μM), E. coli LPS (0.1 μg/mL), R848 (2.85 μM), or P3C (0.33 μM). R848 and P3C were used to specifically activate TLR7 and TLR2 signaling, respectively. TNFαmRNA expression was measured 1 h after ODN 1668 challenge and normalized to the expression of HPRT. See results in FIG. 8A, FIG. 8B, and FIG. 8C. […] The statistical significance of changes was determined by a one-way ANOVA test; *p<0.01.

The test system of the next data set is TLR1/2 signaling. Briefly: TNFα mRNA in BMDM stimulated with Pam3C. The format is cell-based, mouse. Conditions: peptide 40 μM; P3C 0.33 μM; 1 h. On the procedure: as §1, §2
A further data set has as its system TLR2/1 signaling. Briefly: Plasma cytokines after i.p. Pam3C in mice. Conditions: peptide 200 nmol/mouse i.p.; Pam3C 67 nmol/mouse. The format is in vivo, C57BL/6J mice. On the procedure: Systemic cytokine levels were measured in plasma samples obtained 1, 3, and 5 hours after intraperitoneal (i.p.) administration of 7.86 nmol (50 μg) of ODN 1668 or 67 nmol of Pam3C per mouse, using ELISA kits from Biolegend™ Inc. CPDP were dissolved in PBS and administered i.p. at the dose of 200 nmol per mouse 1 hour before administration of a TLR agonist. For survival experiments, mice were sensitized to TLR9 agonists by i.p. injection of 20 mg of D-Gal 30 minutes before administration of peptides or PBS. ODN 1668 was used at the doses of 3.93 or 7.86 nmol/mouse (25 or 50 μg/mouse) 1.5 hours after D-Gal. Animal survival was monitored for 50 hours. All agents were administered i.p. in 500 μL volume of PBS. […]
To test the in vivo efficacy and specificity of 9R34-ΔN, C57BL/6J mice were mock-treated or treated i.p. with a single dose of inhibitory or control peptide (200 nmol/mouse) and challenged with TLR9 agonist ODN 1668 (7.86 nmol/mouse) or TLR2/1 agonist Pam3C (67 nmol/mouse) 1 hour later. Plasma concentrations of TNFα and IL-12-p40 were measured 1, 3, and 5 hours after the challenge. […]
Plasma TNFα and IL-12-p40 levels following intraperitioneal administration of ODN 1668 to C57Bl/6J mice in peptide-pretreated and control mice are shown in FIG. 14A and FIG. 14B. […] The statistical significance of changes in cytokine concentrations was determined by a two-way ANOVA test; *p<0.001.

In a further data set the test system is TLR9-induced lethality. Briefly: Survival of D-Gal pretreated mice after ODN 1668. It counts as in vivo, C57Bl/6J mice. On the procedure: (§3) Systemic cytokine levels were measured in plasma samples obtained 1, 3, and 5 hours after intraperitoneal (i.p.) administration of 7.86 nmol (50 μg) of ODN 1668 or 67 nmol of Pam3C per mouse, using ELISA kits from Biolegend™ Inc. CPDP were dissolved in PBS and administered i.p. at the dose of 200 nmol per mouse 1 hour before administration of a TLR agonist. For survival experiments, mice were sensitized to TLR9 agonists by i.p. injection of 20 mg of D-Gal 30 minutes before administration of peptides or PBS. ODN 1668 was used at the doses of 3.93 or 7.86 nmol/mouse (25 or 50 μg/mouse) 1.5 hours after D-Gal. Animal survival was monitored for 50 hours. All agents were administered i.p. in 500 μL volume of PBS. Animals had free access to food and water during the observation period. All animal experiments were conducted in accordance with the national guidelines for the care and use of laboratory animals under a protocol that was approved by the UMB IACUC.
With the exception for LPS, administration of a purified TLR agonist is not lethal to mice. Mice, however, can be sensitized to TLR agonists by pretreatment with D-galactosamine (D-Gal). Survival of C57Bl/6J mice pretreated with D-galactosamine and challenged with different doses of ODN 1668 was tested. Mice were first administered with D-Gal intraperitoneally at the dose of 20 mg/mouse. Thirty minutes later mice were mock-treated with PBS or treated with a CPDP at the dose 200 nmol/mouse. ODN 1668 was administered 1 hour after peptide treatment at the dose of 3.93 or 7.86 nmol/mouse.

The test system of a further data set is TLR9 signaling. As to the kind of experiment: Plasma cytokines after i.p. ODN 1668 in mice. It counts as in vivo, C57BL/6J mice. On the procedure: as §3
To test the in vivo efficacy and specificity of 9R34-ΔN, C57BL/6J mice were mock-treated or treated i.p. with a single dose of inhibitory or control peptide (200 nmol/mouse) and challenged with TLR9 agonist ODN 1668 (7.86 nmol/mouse) or TLR2/1 agonist Pam3C (67 nmol/mouse) 1 hour later. Plasma concentrations of TNFα and IL-12-p40 were measured 1, 3, and 5 hours after the challenge. Both TLR agonists increased concentrations of TNFα and IL-12-p40 in 1 hour samples from below the limit of detection to about 1.2 and about 6 ng/mL in the case of ODN 1668, and to 0.12 ng/mL and 1 ng/mL after treatment with Pam3C.
Plasma TNFα and IL-12-p40 levels following intraperitioneal administration of ODN 1668 to C57Bl/6J mice in peptide-pretreated and control mice are shown in FIG. 14A and FIG. 14B. Data shown in these figures represent the means±SEM obtained in at least three independent experiments. The statistical significance of changes in cytokine concentrations was determined by a two-way ANOVA test; *p<0.001.

Data set [1] in a line: Stability and solubility of peptide solutions.
Setting [2] is: higher ODN1668 dose 50 μg/mouse, peptide 200 nmol/mouse i.p.

For RSFWAQLGMALTRD (Synthetic peptide 9R11), the “ODN 1668-induced myDDosome formation” value with myDDosome was “prevented ODN 1668-induced myDDosome formation”. Further, the “signaling induced by TLR7 agonist (TNFα mRNA)” value with TLR7 signaling was “did not inhibit”. Further, the “signaling induced by TLR1/2 agonist (TNFα mRNA)” value with TLR1/2 signaling is given as “did not inhibit”.
Regarding ALRLCLEERD [Peptide 9R34-ΔN], the “Pam3C-induced plasma cytokine levels (TNFα, IL-12-p40)” value in the data set on TLR2/1 signaling was “did not affect cytokine levels”. Further, the “protection against ODN-induced lethality (overall)” value in the data set on TLR9-induced lethality (D-Gal pretreated mice) was “protects mice from TLR9-induced lethality”. Further, the “protection of D-Gal pretreated mice (survival)” value with TLR9-induced lethality (ODN 1668 lower dose 3.93 nmol/mouse, peptide 200 nmol/mouse i.p.) is reported as “full protection”. For the same sequence, in the data set with TLR9-induced lethality (setting [2]), the mice rescued result was “more than 50%” and the “protection of D-Gal pretreated mice (survival)” value was “less protective”. Further, in the data set on TLR9 signaling (3-hour samples, peptide 200 nmol/mouse i.p., ODN 1668 7.86 nmol/mouse), the “decrease of plasma IL-12-p40 peak” value is “approximately 25 fold”. In the data set on TLR9 signaling (peptide 200 nmol/mouse i.p. 1 hour before ODN 1668 7.86 nmol/mouse), the “1-hour plasma TNFα peak” value is given as “eliminated”. Further, the “ODN 1668-induced plasma cytokine levels (TNFα, IL-12-p40)” value with TLR9 signaling (peptide 200 nmol/mouse i.p., ODN 1668 7.86 nmol/mouse) is “selectively inhibited only the ODN 1668-induced cytokines”. The “concentration up to which stock solutions were stable” value in data set [1] is given as “up to 10 mM”.
